Series [1] deals with COVID-19. The note with it: cited from earlier work.
Series [2] has as its system COVID-19. The note with it: single case; case report later retracted; cited from earlier work.
Series [3] relates to COVID-19. The note with it: men, proxalutamide 200 mg for up to seven days; cited from earlier work.
Another series relates to ACE2. The following applies: cited from earlier work.
Series [4] deals with COVID-19. The note with it: cited from earlier work. This is another data set of the same source.
Series [5] has as its system COVID-19. Briefly: Clinical trial of proxalutamide in hospitalized COVID-19 patients in Brazil (NCT04728802). The series is classed as in vivo, human. The following applies: initiated in patients that don't require supplemental O2.
A further series deals with T1, androgen receptor (Homo sapiens, UniProt P10275).
T1 sequence (P10275 1-920): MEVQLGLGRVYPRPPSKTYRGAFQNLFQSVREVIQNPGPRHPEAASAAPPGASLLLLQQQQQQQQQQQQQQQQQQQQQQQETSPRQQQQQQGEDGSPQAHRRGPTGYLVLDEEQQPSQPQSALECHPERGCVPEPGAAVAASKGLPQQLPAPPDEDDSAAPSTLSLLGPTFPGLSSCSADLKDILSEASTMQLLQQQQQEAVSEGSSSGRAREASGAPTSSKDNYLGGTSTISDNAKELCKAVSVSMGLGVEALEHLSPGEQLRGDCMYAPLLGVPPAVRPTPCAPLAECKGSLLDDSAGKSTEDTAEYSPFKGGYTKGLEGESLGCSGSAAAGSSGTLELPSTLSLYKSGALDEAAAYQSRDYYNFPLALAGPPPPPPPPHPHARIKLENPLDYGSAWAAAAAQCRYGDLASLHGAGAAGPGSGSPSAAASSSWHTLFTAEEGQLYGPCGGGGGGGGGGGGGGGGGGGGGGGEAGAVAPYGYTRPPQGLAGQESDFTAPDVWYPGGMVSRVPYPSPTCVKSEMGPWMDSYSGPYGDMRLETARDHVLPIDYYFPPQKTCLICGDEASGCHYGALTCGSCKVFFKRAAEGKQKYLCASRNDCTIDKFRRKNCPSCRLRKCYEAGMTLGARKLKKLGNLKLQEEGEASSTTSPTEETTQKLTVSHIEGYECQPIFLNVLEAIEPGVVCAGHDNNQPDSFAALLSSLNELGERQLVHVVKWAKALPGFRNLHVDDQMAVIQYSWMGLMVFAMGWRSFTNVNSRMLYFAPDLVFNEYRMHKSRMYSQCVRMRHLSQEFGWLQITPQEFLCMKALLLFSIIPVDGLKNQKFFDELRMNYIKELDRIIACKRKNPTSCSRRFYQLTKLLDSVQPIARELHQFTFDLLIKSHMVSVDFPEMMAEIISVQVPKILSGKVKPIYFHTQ
The following applies: clinical evidence; cited from earlier work.

Series [6] relates to COVID-19. The following applies: patients with severe lung involvement; cited from earlier work.
The next series relates to sepsis. The note with it: fecal peritonitis model; cited from earlier work.
For series [7], the system named is COVID-19. The note with it: cited from earlier work. The source holds these as a separate data set.
For series [8], the system named is TMPRSS2. The following applies: in men; cited from earlier work.
In series [9] the test system is angiotensin converting enzyme 2 (ACE2). The note with it: in men; cited from earlier work.
The test system of series [10] is TMPRSS2. The note with it: cited from earlier work.
The conditions of series [11]: in vivo; cited from earlier work.
Series [12] concerns COVID-19. The following applies: inventors' reading of Welén et al.; the authors report no evidence of benefit; cited from earlier work.
For series [13], the system named is COVID-19. The note with it: men with diagnosis of AGA, outpatient setting; cited from earlier work.
For series [14], the system named is COVID-19. The note with it: at five days of therapy; cited from earlier work.

Where two headings read alike, the source gives them in different places.

For `CC1(C)C(=O)N(c2ccc(C#N)c(C(F)(F)F)c2F)C(=S)N1c1ccc(CCCc2ncco2)nc1` [proxalutamide], the “mortality in COVID-19 patients” value in the series on COVID-19 [1] (data from Brazil, both arms using corticosteroids) was “dramatic impact of proxalutamide in reducing mortality”. Moreover, the “lung opacities compared to placebo” value in the series on COVID-19 [1] (hospitalized COVID-19 patients) is “improves lung opacities”. Besides, the “symptom resolution and laboratory improvement” value in the series on COVID-19 [2] is “striking symptom resolution and laboratory improvement within twenty-four hours”. In the series on COVID-19 [3], the 30-day hospitalization rate entry was “about 2%” and the “reduction of the risk of hospitalization compared to usual care” value is reported as “more than 90%”. For the same compound, the “expression of ACE2” value with ACE2 is reported as “lowers the expression of ACE2”. Besides, the “mortality, subgroup analysis” value with COVID-19 [4] (meta-analysis of RCTs) is “significantly reduce mortality”. The survival entry in the series on COVID-19 [5] is reported as “no difference in survival”. Further, on androgen receptor, the “androgen receptor expression and activity” value was “lowers androgen receptor expression and activity”. Moreover, in the series on COVID-19 [6], the “benefit vs standard-of-care which includes steroids” value is “showed benefit”.
Take `COCCCC/C(=N\OCCN)c1ccc(C(F)(F)F)cc1` [fluvoxamine]: the anti-sepsis activity entry in the series with sepsis is given as “anti-sepsis activity”.
As for `C[C@]12CCC(=O)C=C1C=C[C@@H]1[C@@H]2CC[C@@]2(C)[C@H]1CC[C@@]21CCC(=O)O1` [Canrenone], the fatalities entry in the series on COVID-19 [7] (intensive care observational series of cases with hypertension or hypokalemia) is reported as “associated with reduced fatalities”.
As for `CC(=O)S[C@@H]1CC2=CC(=O)CC[C@]2(C)[C@H]2CC[C@@]3(C)[C@@H](CC[C@@]34CCC(=O)O4)[C@H]12` [spironolactone], the “expression of TMPRSS2” value in the series with TMPRSS2 [8] was “decrease the expression”. In addition, in series [9], the “expression of ACE2” value is recorded as “decrease the expression”.
What is called half-life is how long it takes for the measured level to halve. `CNC(=O)c1ccc(N2C(=S)N(c3ccc(C#N)c(C(F)(F)F)c3)C(=O)C2(C)C)cc1F` [enzalutamide]: the TMPRSS2 regulation result with TMPRSS2 [10] was “significantly downregulated TMPRSS2”. In addition, the half-life in series [11] was 140 h. Besides, in the series with COVID-19 [4] (human, in vivo), the “mortality, subgroup analysis” value is “significantly reduce mortality”. For the same compound, the “effect on hospitalized COVID-19 patients” value in the series with COVID-19 [12] is “positive effects”.
Regarding `C[C@]12C=CC(=O)N[C@@H]1CC[C@@H]1[C@@H]2CC[C@]2(C)[C@@H](C(=O)Nc3cc(C(F)(F)F)ccc3C(F)(F)F)CC[C@@H]12` [dutasteride], the “expression of TMPRSS2” value in the series on TMPRSS2 [8] was “decrease the expression”. In addition, the half-life result in series [11] was “five”. In addition, the “symptomatic COVID-19 disease” value in the series with COVID-19 [13] is on record as “less symptomatic COVID-19 disease”. Also, the “expression of ACE2” value in series [9] is on record as “decrease the expression”.
On to `CC(C)(C)NC(=O)[C@H]1CC[C@H]2[C@@H]3CC[C@H]4NC(=O)C=C[C@]4(C)[C@H]3CC[C@]12C` [Finasteride], for which, in series [11], the half-life entry is reported as “six”. The “peripheral capillary oxygen saturation” value in the series on COVID-19 [14] was “clinically and statistically significant improvement”.
As to `C[C@]12CCC(=O)C=C1C=C[C@@H]1[C@@H]2CC[C@@]2(C)[C@H]1CC[C@@]2(O)CCC(=O)O` [Potassium canrenoate], in the series with COVID-19 [7] (severe COVID patients), the all-cause mortality result was “proven to reduce all-cause mortality”.

Source of the values: patent publication US20250295634A1, “USE OF ANTIANDROGENS TO TREAT SEPSIS” (Rhode Island Hospital, priority 2024, published 2025).
